Laboratory results from patent US20130012473A1, “COMBINED USE OF PHOSPHOLIPID AND SULFATE GROUPS-CARRYING POLYSACCHARIDES FOR INHIBITING METASTATIC SPREAD” (KTB TUMORFORSCHUNGSGESELLSCHAFT MBH, priority 2010, published 2013).

What was measured:
[1] = system: VLA-4 adhesion of B16.F10 cells to VCAM-1; test: Parallel plate flow chamber assay, cell adhesion to immobilized VCAM-1; format: cell-based, mouse
Method: Flow chamber assay: The interaction of B16.F10 cells with VCAM-1 Fc chimera under physiological flow conditions was analyzed on glass slides coated with VCAM-1 Fc chimera in a parallel plate flow chamber, as described in detail in our previous investigations (Fritzsche, J. et al., Thromb. Haemost. 100:1166-1175 (2008)).
Example 2: Impact of LysoPC treatment of B16.F10 cells on adhesion receptor activity in vitro. In order to investigate the concentration and time dependent effects of LysoPC on the receptor mediated cell binding ability, VLA-4 adhesion of B16.F10 cells to a support-fixed VCAM-1 layer was investigated (FIG. 2A). […] The LysoPC effects on adhesion became amplified by repeated LysoPC feeding.

[2] = system: VLA-4; test: Flow cytometry, VLA-4 surface expression (anti-mouse CD49d mAb); format: cell-based; conditions: repeatedly incubated with 450 μM LysoPC for 13 days
Method: FIG. 3: Impact of exogenous LysoPC on the surface expression of VLA-4 or VCAM-1- and P-selectin-ligands. (A) Surface expression of VLA-4 on B16.F10 cells treated with 450 μM LysoPC for 13 days was controlled by flow cytometric analysis. […] FACS histograms (A-C) show one representative of three independent experiments. In all experiments cells only incubated with the respective FITC-conjugated detection antibody served as control.

[3] = system: B16.F10 melanoma cells; test: Removal of exogenous LysoPC from the medium (PC/LysoPC and free choline assays); format: cell-based, mouse; conditions: in absence of the cells
Description: Cell culture and LysoPC feeding: Mouse melanoma cell line B16.F10 (ATCC, CRL-6475) was passaged in vitro in DMEM as described before (Fritzsche, J. et al., Thromb. Haemost. 100:1166-1175 (2008)). Cells were routinely (monthly) tested to be negative of mycoplasms, their morphological appearance observed by microscopic means and examined for the expression of adhesion receptors and ligands by flow cytometry. LysoPC removal (1-Heptadecanoyl-2-hydroxy-sn-glycero-3-phosphocholine, (C17:0; HEP-LysoPC), Avanti Polar Lipids, Inc., or 1-Hexadecanoyl-sn-glycero-3-phosphocholine, (C16:0; HEX-LysoPC), Sigma, Taufkirchen, Germany was determined using 1×10^5 cells in 24-well tissue culture plates (Greiner BioOne, Frickenhausen, Germany). Non-cytotoxic LysoPC/BSA DMEM-solutions (FIG. 7 A) were prepared by adding 20-40 mg/ml bovine serum albumine (BSA, PAA Laboratories GmbH, Cölbe, Germany). Cell culture supernatants were collected from triplicates of LysoPC treated and untreated control wells. Cells were removed from tissue culture plates using trypsin/EDTA. […]
Determination of LysoPC concentration: LysoPC concentration was determined by an enzymatic PL (PC/LysoPC) assay containing phospholipase D and choline oxidase (mti diagnostics GmbH, Idstein, Germany). […]
B, C and D) Colorimetric assays for the quantification of LysoPC removal from the supernatant of B16.F10. […]

CCCCCCCCCCCCCCCCC(=O)OC[C@@H](O)COP(=O)([O-])OCC[N+](C)(C)C [LysoPC]
cell binding to support-fixed VCAM-1 ([1]; repeated addition of 300 μM LysoPC (13 days)): no effect in reducing the VLA-4 binding
cell binding to support-fixed VCAM-1 ([1]; single incubation with 300 μM LysoPC for 72 h): did not mediate significant binding decrease
cell binding to support-fixed VCAM-1 ([1]; single incubation with 450 μM LysoPC for 72 h before VLA-4 activation): significantly impaired the cell binding
cell binding to support-fixed VCAM-1 ([1]; treated six times with 450 μM LysoPC (13 days)): complete binding inhibition
VLA-4 receptor expression [2]: did not influence VLA-4 receptor expression
LysoPC concentration in culture medium [3]: not changed in absence of the cells
